US20240208928A1, “NOVEL COMPOUNDS” (Hoffmann-La Roche Inc., priority 2021, published 2024)

Tests used:
Assay type in all cases: cell-based
NLRP3 [1] = biological target: T1, NLRP3 (Homo sapiens, UniProt Q96P20); test: THP-1 cells pyroptosis assay; parameters: Seed THP-1 cells (25,000 cells/well) containing 1.0 μg/ml LPS; host or cells: THP-1 cells, LPS-primed, nigericin-stimulated; settings: 1.0 μg/ml LPS, nigericin 5 μM, resazurin readout
Method: The cells were routinely passaged and grown to confluency (˜10^6 cells/ml). On the day of the experiment, THP-1 cells were harvested and resuspended into RPMI medium (without FBS). […] To this diluted cell solution was added LPS (Sigma #L4524) to give a 1 μg/ml Final Assay Concentration (FAC). 40 μl of the final preparation was aliquoted into each well of a 96-well plate. The plate thus prepared was used for compound screening.
The following method step-by-step assay was followed for compound screening. • 1. […] Incubate for 3 hrs at 37° C., 5% CO2 • 4. Add 5 μl nigericin (Sigma #N7143) (FAC 5 μM) to all wells • 5. Incubate for 1 hr at 37° C., 5% CO2 • 6. At the end of the incubation period, spin plates at 300×g for 3 mins and remove supernatant • 7. Then add 50 μl of resazurin (Sigma #R7017) (FAC 100 μM resazurin in RPMI medium without FBS) and incubate plates for a further 1-2 hrs at 37° C. and 5% CO2 • 8. […] IC50 data is fitted to a non-linear regression equation (log inhibitor vs response-variable slope 4-parameters)

hERG channels = biological target: T2, hERG channels (Homo sapiens, UniProt Q12809); test: hERG screening assay (automated patch clamp); settings: CHO crelox hERG cell line, whole-cell patch clamp SynchroPatch 384, 35-37° C.
T2 construct: cryopreserved at Evotec (Germany) ATCC PTA-6812; host or cells: CHO (Chinese hamster) crelox hERG cell line
T2 sequence (Q12809 whole entry): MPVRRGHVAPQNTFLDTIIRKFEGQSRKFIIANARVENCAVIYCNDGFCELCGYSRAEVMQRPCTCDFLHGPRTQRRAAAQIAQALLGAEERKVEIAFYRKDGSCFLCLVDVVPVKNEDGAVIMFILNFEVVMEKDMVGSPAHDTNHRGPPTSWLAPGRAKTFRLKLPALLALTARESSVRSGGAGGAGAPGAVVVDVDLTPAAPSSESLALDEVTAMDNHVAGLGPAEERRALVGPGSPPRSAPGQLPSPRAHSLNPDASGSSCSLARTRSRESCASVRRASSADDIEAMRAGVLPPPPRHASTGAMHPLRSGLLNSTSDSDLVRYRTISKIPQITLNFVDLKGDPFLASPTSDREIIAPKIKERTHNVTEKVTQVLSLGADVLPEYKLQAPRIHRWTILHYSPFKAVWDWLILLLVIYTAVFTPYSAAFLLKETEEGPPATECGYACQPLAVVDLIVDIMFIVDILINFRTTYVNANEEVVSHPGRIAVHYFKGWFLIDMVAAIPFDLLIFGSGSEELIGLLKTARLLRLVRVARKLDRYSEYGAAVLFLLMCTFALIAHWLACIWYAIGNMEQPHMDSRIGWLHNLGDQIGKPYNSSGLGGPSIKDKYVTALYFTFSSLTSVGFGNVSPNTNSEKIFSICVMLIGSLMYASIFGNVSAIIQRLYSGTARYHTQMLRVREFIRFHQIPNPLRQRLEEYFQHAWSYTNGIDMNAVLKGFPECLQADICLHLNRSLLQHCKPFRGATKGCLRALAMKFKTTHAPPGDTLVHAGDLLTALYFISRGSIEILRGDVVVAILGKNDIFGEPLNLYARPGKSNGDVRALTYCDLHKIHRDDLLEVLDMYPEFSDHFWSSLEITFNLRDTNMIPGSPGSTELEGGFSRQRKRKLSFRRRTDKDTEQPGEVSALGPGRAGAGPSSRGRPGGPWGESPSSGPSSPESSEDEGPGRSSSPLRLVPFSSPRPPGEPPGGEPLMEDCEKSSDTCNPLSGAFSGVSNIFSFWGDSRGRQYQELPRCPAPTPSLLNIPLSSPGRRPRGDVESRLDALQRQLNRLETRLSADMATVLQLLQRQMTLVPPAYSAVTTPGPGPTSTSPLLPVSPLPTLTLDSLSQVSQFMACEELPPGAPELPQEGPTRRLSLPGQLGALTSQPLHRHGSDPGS
Text: hERG Screening Assay The CHO crelox hERG cell line (ATCC reference Nr. PTA-6812, female Chinese hamster cells) was generated and validated at Roche. Ready-to-use frozen instant CHO-hERG cells were cryopreserved at Evotec (Germany) and used directly in the experiments. The extracellular solution contains (in mM): NaCl 150; KCl 4; CaCl2 1; MgCl2 1; HEPES 10; pH 7.2-7.4 with NaOH, osmolarity 290-330 mOsm. The internal solution contains (in mM): KCl, 10; KF, 100; NaCl, 10; HEPES, 10; EGTA, 20; pH=7.0-7.4 with KOH, osmolarity 260-300 mOsm. The effects of a compound on hERG K+-currents parameters will be evaluated at 2 concentrations in at least 4 cells. The hERG test is performed using automated patch clamp system SynchroPatch® 384 (Nanion Technologies GmbH, Germany). K+ currents are measured with the patch-voltage-clamp technique in the whole-cell configuration at 35-37° C. Cells were held at a resting voltage of −80 mV and they were stimulated by a voltage pattern shown in FIG. 1 to activate hERG channels and conduct outward IKhERG current, at a stimulation frequency of 0.1 Hz (6 bpm) The amplitudes of IKhERG were recorded in each concentration of drug and they were compared to the vehicle control values (taken as 100%) to define fractional blocks. The concentration-response data were fitted with the following relationship: where C is the concentration, • IC50 is the concentration producing 50% block • h is the Hill coefficient. Concentration-response curves were fitted by non-linear regression analysis using EworkBook suite (ID Business Solutions Ltd, UK). Data fit was done with the 4 Parameter Logistic Model (fit=(A+(B/(1+((x/C)^D)))), where A=0 and B=100).

NLRP3 [2] = biological target: T1, NLRP3; test: Human whole blood IL-1β release assay; parameters: Human whole blood in Li-heparin tubes was obtained from healthy donors; from tissue; host or cells: human whole blood from healthy donors, LPS-primed, nigericin-stimulated; settings: 1 μg/ml LPS, nigericin 10 μM, IL-1β by AlphaLisa
Method: For systemic delivery, the ability to inhibit NLRP3 when the compounds are present within the bloodstream is of great importance. For this reason, the NLRP3 inhibitory activity of a number of compounds in human whole blood was investigated in accordance with the following protocol.
Human whole blood in Li-heparin tubes was obtained from healthy donors from a volunteer donor panel. • 1. […] Incubate for 3 hrs at 37° C., 5% CO2 • 4. Add 10 μl nigericin (Sigma #N7143) (10 μM FAC) to all wells • 5. Incubate for 1 hr at 37° C., 5% CO2 • 6. At the end of the incubation period, spin plates at 300×g for 5 mins to pellet cells and remove 20 μl of supernatant and add to 96-well v-bottom plates for IL-1β analysis (note: these plates containing the supernatants can be stored at −80° C. to be analysed at a later date) • 7. IL-1β was measured according to the manufacturer protocol (Perkin Elmer-AlphaLisa IL-1 Kit AL220F-5000) • 8. IC50 data is fitted to a non-linear regression equation (log inhibitor vs response-variable slope 4-parameters)

T1 sequence (Q96P20 whole entry): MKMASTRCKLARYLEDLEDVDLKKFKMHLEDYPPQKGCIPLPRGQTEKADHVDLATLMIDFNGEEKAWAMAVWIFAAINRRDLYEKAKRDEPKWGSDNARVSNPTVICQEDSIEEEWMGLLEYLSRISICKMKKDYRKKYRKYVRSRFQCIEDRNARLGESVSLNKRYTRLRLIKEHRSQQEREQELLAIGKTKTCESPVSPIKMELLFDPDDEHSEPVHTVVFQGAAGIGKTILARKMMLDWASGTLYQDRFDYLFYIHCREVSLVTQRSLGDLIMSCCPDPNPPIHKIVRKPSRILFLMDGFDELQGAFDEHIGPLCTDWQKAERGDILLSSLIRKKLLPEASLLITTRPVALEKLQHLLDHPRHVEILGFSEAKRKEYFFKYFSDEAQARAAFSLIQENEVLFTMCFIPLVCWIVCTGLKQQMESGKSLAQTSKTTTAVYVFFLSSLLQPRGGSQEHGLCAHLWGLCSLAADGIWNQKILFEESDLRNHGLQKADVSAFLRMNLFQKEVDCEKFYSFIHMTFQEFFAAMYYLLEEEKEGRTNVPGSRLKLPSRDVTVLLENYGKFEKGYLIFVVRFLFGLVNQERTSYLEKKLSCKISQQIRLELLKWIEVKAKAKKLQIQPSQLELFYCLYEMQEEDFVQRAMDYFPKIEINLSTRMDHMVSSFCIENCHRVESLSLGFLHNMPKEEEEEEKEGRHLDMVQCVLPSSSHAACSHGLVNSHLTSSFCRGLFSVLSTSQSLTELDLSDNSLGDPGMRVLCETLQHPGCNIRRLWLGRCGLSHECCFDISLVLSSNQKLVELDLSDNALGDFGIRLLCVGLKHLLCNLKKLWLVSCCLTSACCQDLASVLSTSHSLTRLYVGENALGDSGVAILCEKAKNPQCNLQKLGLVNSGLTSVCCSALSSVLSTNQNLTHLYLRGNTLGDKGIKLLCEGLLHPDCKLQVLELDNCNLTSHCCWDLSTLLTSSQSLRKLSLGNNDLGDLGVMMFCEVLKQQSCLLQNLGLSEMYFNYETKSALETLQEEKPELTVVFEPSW

| Compound | IC50 (NLRP3 [1]) | IC50 (hERG channels) | IC50 (NLRP3 [2]) |
| --- | --- | --- | --- |
| CCN1CCCC(Nc2nnc(-c3ccc(C(F)(F)F)cc3O)n(C)c2=O)C1 (stereo not drawn) [Example 1, 6-((1-ethylpiperidin-3-yl)amino)-3-(2-hydroxy-4-(trifluoromethyl)phenyl)-4-methyl-1,2,4-triazin-5(4H)-one] | 0.044 µM | > 20 µM | 0.035 µM |
| CCN1CCC[C@@H](Nc2nnc(-c3ccc4c(c3O)CCO4)n(C)c2=O)C1 [Example 2, 6-[[(3R)-1-Ethyl-3-piperidyl]amino]-3-(4-hydroxy-2,3-dihydrobenzofuran-5-yl)-4-methyl-1,2,4-triazin-5-one] |  | > 20 µM |  |
| Cn1c(-c2ccc(C(F)(F)F)cc2O)nnc(N[C@@H]2CCCN(C3CC3)C2)c1=O [Example 10, (R)-6-((1-Cyclopropylpiperidin-3-yl)amino)-3-(2-hydroxy-4-(trifluoromethyl)phenyl)-4-methyl-1,2,4-triazin-5(4H)-one] | 0.039 µM | > 20 µM | 0.17 µM |
| CCN1CCC[C@@H](Nc2nnc(-c3ccc(C(F)(F)F)cc3O)n(C)c2=O)C1 [Example 19, 6-[[(3R)-1-Ethyl-3-piperidyl]amino]-3-[2-hydroxy-4-(trifluoromethyl)phenyl]-4-methyl-1,2,4-triazin-5-one;2,2,2-trifluoroacetic Acid] | 0.01 µM | > 20 µM | 0.0095 µM |
| CCN1CCC[C@@H](Nc2nnc(-c3ccc(F)cc3O)n(C)c2=O)C1 [Example 21, 6-[[(3R)-1-Ethyl-3-piperidyl]amino]-3-(4-fluoro-2-hydroxy-phenyl)-4-methyl-1,2,4-triazin-5-one] | 0.058 µM | > 20 µM | 0.028 µM |
| CCN1CCC[C@@H](Nc2nnc(-c3ccc(C(C)(F)F)cc3O)n(C)c2=O)C1 [Example 24, 3-[4-(1,1-Difluoroethyl)-2-hydroxy-phenyl]-6-[[(3R)-1-ethyl-3-piperidyl]amino]-4-methyl-1,2,4-triazin-5-one] | 0.106 µM |  | 0.108 µM |
| CCN1CCC[C@@H](Nc2nnc(-c3ccc(C(C)=O)cc3O)n(C)c2=O)C1 [Example 25, 3-(4-Acetyl-2-hydroxy-phenyl)-6-[[(3R)-1-ethyl-3-piperidyl]amino]-4-methyl-1,2,4-triazin-5-one] | 0.0093 µM |  | 0.015 µM |
| CCN1CCC[C@@H](Nc2nnc(-c3ccc(OC(F)(F)F)cc3O)n(C)c2=O)C1 [Example 27, 6-[[(3R)-1-Ethyl-3-piperidyl]amino]-3-[2-hydroxy-4-(trifluoromethoxy)phenyl]-4-methyl-1,2,4-triazin-5-one] | 0.012 µM | > 20 µM | 0.014 µM |
| CCN1CCC[C@@H](Nc2nnc(-c3c(C)cc(C(F)(F)F)cc3O)n(C)c2=O)C1 [Example 28, 6-[[(3R)-1-Ethyl-3-piperidyl]amino]-3-[2-hydroxy-6-methyl-4-(trifluoromethyl)phenyl]-4-methyl-1,2,4-triazin-5-one] | 0.013 µM | > 20 µM | 0.031 µM |
| CCN1CCC[C@@H](Nc2nnc(-c3ccc(Cl)cc3O)n(C)c2=O)C1 [Example 33, 3-(4-Chloro-2-hydroxy-phenyl)-6-[[(3R)-1-ethyl-3-piperidyl]amino]-4-methyl-1,2,4-triazin-5-one] |  | > 20 µM |  |
| CN1CCC[C@@H](Nc2nnc(-c3ccc(OC(F)(F)F)cc3O)n(C)c2=O)C1 [Example 34, 3-[2-Hydroxy-4-(trifluoromethoxy)phenyl]-4-methyl-6-[[(3R)-1-methyl-3-piperidyl]amino]-1,2,4-triazin-5-one] | 0.0131 µM |  | 0.0352 µM |
| CCN1CCCC(Nc2cc(C)c(-c3ccc(C(F)(F)F)cc3O)nn2)C1 (stereo not drawn) [RE-A, 2-[6-[(1-ethyl-3-piperidyl)amino]-4-methyl-pyridazin-3-yl]-5-(trifluoromethyl)phenol, reference compound] |  | 1.2 µM |  |
